Measured values from US20220153732A1, “PROTEIN SECRETION INHIBITORS” (KEZAR LIFE SCIENCES, priority 2019, published 2022).
Like-named read-outs stand apart in the source and are kept apart here.

How the values were obtained:
Assay type in all cases: cell-based
[1] = test system: TNFα-FL/Gaussia Luciferase; assay: Dox Induced TNFα-FL-Gluc Assay; settings: 293FRT/TO cells, read-out: 24 hr Dox Inducible TNFaFLGluc 293FRT/TO: Mean IC50
Procedure, shortened: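 A stable T-REx cell line carrying doxycycline-inducible TNFα-FL/Gaussia luciferase was plated the day before assay. Compound dilutions in DMSO/media containing doxycycline were then added and incubated at 37° C, 5% CO2.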

[2] = test system: human multiple myeloma cell line NCI-H929; assay: H929 Cell Viability Assay; settings: 48 hr, NCI-H929 cells, Celltiter-Glo, read-out: 48 hr H929 Viability Celltiter-Glo: Mean EC50
Description: Plates were incubated at 37° C., 5% CO2 for 48 hours. After 48 hours, Celltiter-Glo® (Promega) was added to each well and luciferase signal was quantified using Tecan Infinite M1000 Pro for cell viability determination.
For chemical structures that include one or more stereoisomers, but are illustrated without indicating stereochemistry, the assay data refers to a mixture of stereoisomers.

[3] = test system: HER3-ss+4aa/Gaussia Luciferase; assay: Dox-Induced Her3-ss-Gluc Assay; settings: 293FRT/TO cells, read-out: 24 hr Dox Inducible Her3(ss + 4)Gluc 293FRT/TO: Mean IC50
Procedure, shortened: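 Stable T-REx cell line carrying a doxycycline-regulated HER3-ss+4aa/Gaussia luciferase insert, plated the day before assay. Compound dilutions in DMSO/media with doxycycline added, then incubated at 37° C., 5% CO2. Stereoisomer mixtures tested where stereochemistry is not drawn.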

[4] = test system: PD1-ss+10aa/Gaussia Luciferase; assay: Dox-Induced PD1-ss-Gluc Assay; settings: 293FRT/TO cells, read-out: 24 hr Dox Inducible PD1ssGluc 293FRT/TO: Mean IC50
Procedure, shortened: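 Stable cell line carrying PD1-ss+10aa/Gaussia luciferase cDNA under T-REx (doxycycline-inducible) control, plated the day before assay. Compound dilutions in DMSO/media containing doxycycline added and incubated at 37° C, 5% CO2. Undefined stereocentres: data refer to stereoisomer mixtures.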

[5] = test system: human multiple myeloma cell line U266B1; assay: U266 Cell Viability Assay; settings: U-266, 48 hr, U266B1 cells, Celltiter-Glo, read-out: 48 hr U266 Viability Celltiter-Glo: Mean EC50
Procedure, shortened: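 U266B1 myeloma cells treated with compound dilutions in DMSO/media for 48 h at 37 °C, 5% CO2. Viability read by CellTiter-Glo luminescence. Stereochemically undefined structures were tested as stereoisomer mixtures.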

[6] = test system: IL-2-FL/Gaussia Luciferase; assay: Dox Induced IL2-FL-Gluc Assay; settings: 293FRT/TO cells, read-out: 24 hr Dox Inducible IL2FLGIuc 293FRT/TO: Mean IC50
Procedure, shortened: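 Stable T-REx cell line expressing doxycycline-inducible IL-2-FL/Gaussia luciferase cDNA, plated the day before assay. Compound dilutions in DMSO/media containing doxycycline added and incubated at 37° C., 5% CO2. Unspecified stereochemistry means data refer to a stereoisomer mixture.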

[7] = 24 hr doxycycline induction, Gaussia luciferase signal

| Compound | IC50 [1, 7] [µM] | EC50 [2] [µM] | IC50 [3, 7] [µM] | IC50 [4, 7] [µM] | EC50 [5] [µM] | IC50 [6, 7] [µM] | IC50 ([1]; 24 hr, doxycycline-induced) [µM] | IC50 ([3]; 24 hr, doxycycline-induced) [µM] | IC50 ([4]; 24 hr, doxycycline-induced) [µM] | IC50 ([6]; 24 hr, doxycycline-induced) [µM] |
| --- | --- | --- | --- | --- | --- | --- | --- | --- | --- | --- |
| CC(C)Oc1ccc(/C=C/c2csc(NC(=O)c3cccn3Cc3ccncc3)n2)cc1 [Compound A236, N-(4-(4-isopropoxystyryl)thiazol-2-yl)-1-(pyridin-4-ylmethyl)-1H-pyrrole-2-carboxamide] | 3.24 | 7.7 | 0.535 | 0.087 | > 25 | 1.01 | – | – | – | – |
| Cc1cc(Cn2cccc2C(=O)Nc2nc(C(C)(C)OC(C)C)cs2)ccn1 [Compound A83, N-(4-(2-isopropoxypropan-2-yl)thiazol-2-yl)-1-((2-methylpyridin-4-yl)methyl)-1H-pyrrole-2-carboxamide] | > 25 | > 25 | > 25 | 5.37 | > 25 | 4.52 | – | – | – | – |
| COc1ccc([C@H]2C[C@H]2c2csc(NC(=O)c3cccn3Cc3ccncc3)n2)nc1 [Compound A312] | – | > 25 | – | – | > 25 | – | 4.13 | 0.646 | 0.197 | 1.14 |
| O=C(Nc1nc(C2=Cc3ccccc3C2)cs1)c1cccn1Cc1ccncc1 [Compound A242, N-(4-(1H-inden-2-yl)thiazol-2-yl)-1-(pyridin-4-ylmethyl)-1H-pyrrole-2-carboxamide] | > 25 | > 25 | 0.596 | 0.281 | > 25 | > 25 | – | – | – | – |
| Cc1sc(NC(=O)c2cccn2Cc2ccncc2)nc1C(C)(C)OC(C)C [Compound A37, N-(4-(2-isopropoxypropan-2-yl)-5-methylthiazol-2-yl)-1-(pyridin-4-ylmethyl)-1H-pyrrole-2-carboxamide] | 12.1 | > 25 | 1.24 | 0.703 | > 25 | 1.07 | – | – | – | – |
| CC(=O)NCCc1nc(NC(=O)c2cccn2Cc2ccncc2)sc1C [Compound B22, N-(4-(2-acetamidoethyl)-5-methylthiazol-2-yl)-1-(pyridin-4-ylmethyl)-1H-pyrrole-2-carboxamide] | – | > 25 | – | – | > 25 | – | > 25 | > 25 | > 25 | > 25 |
| CC(C)OC(C)(C)c1csc(NC(=O)c2cccn2C/C=C/c2ccncc2)n1 [Compound A221, N-(4-(2-isopropoxypropan-2-yl)thiazol-2-yl)-1-(3-(pyridin-4-yl)allyl)-1H-pyrrole-2-carboxamide] | > 25 | > 25 | > 25 | > 25 | > 25 | > 25 | – | – | – | – |
| CC(C)OC(C)(C)c1csc(NC(=O)c2cccn2Cc2ccn(C)c(=O)c2)n1 [Compound A127, N-(4-(2-isopropoxypropan-2-yl)thiazol-2-yl)-1-((1-methyl-2-oxo-1,2-dihydropyridin-4-yl)methyl)-1H-pyrrole-2-carboxamide] | > 25 | > 25 | > 25 | > 25 | > 25 | > 25 | – | – | – | – |
| CC(C)OC(C)(C)c1csc(NC(=O)c2cccn2C(C)c2ccncc2)n1 (stereo not drawn) [Compound A61] | > 25 | > 25 | 3.41 | 1.67 | > 25 | 2.38 | – | – | – | – |
| O=C(Nc1nc([C@H]2CCC(=O)N2c2ccccc2)cs1)c1cccn1Cc1ccncc1 [Compound A319] | – | > 25 | – | – | > 25 | – | 16 | 2.72 | 1.31 | 1.84 |
| CCc1nc(NC(=O)c2cccn2Cc2ccncc2)sc1C [Compound A32, N-(4-ethyl-5-methylthiazol-2-yl)-1-(pyridin-4-ylmethyl)-1H-pyrrole-2-carboxamide] | > 20.3 | > 25 | 1.33 | 0.633 | > 25 | 1.98 | – | – | – | – |
| O=C(Nc1nc(N2CCc3ccccc3C2)cs1)c1cccn1Cc1ccncc1 [Compound A267] | > 25 | > 25 | > 25 | 15.4 | > 25 | > 25 | – | – | – | – |
| CC(=O)N1CCC(Cn2cccc2C(=O)Nc2nc(C(C)(C)OC(C)C)cs2)CC1 [Compound A128, 1-((1-acetylpiperidin-4-yl)methyl)-N-(4-(2-isopropoxypropan-2-yl)thiazol-2-yl)-1H-pyrrole-2-carboxamide] | > 25 | > 25 | > 25 | > 25 | > 25 | > 25 | – | – | – | – |
| Cc1cccc2sc(NC(=O)c3cccn3Cc3ccncc3)nc12 [Compound A46] | 17.8 | > 25 | 2.98 | 1.07 | > 25 | 0.89 | – | – | – | – |
| O=C(Nc1nc(/C=C/c2ccc(F)cn2)cs1)c1cccn1Cc1ccncc1 [Compound A342] | – | 23.7 | – | – | > 25 | – | > 25 | 0.952 | 0.068 | 1.4 |
| Cc1csc(NC(=O)c2cccn2Cc2ccncc2)n1 [Compound A63, N-(4-methylthiazol-2-yl)-1-(pyridin-4-ylmethyl)-1H-pyrrole-2-carboxamide] | > 25 | > 25 | 10.6 | 1.72 | > 25 | > 25 | – | – | – | – |
| CC(C)O[C@@H]1CC(c2csc(NC(=O)c3cccn3Cc3ccncc3)n2)N(c2ccccc2)C1 (stereo partly drawn) [Compound A346] | – | 0.972 | – | – | > 25 | – | 0.092 | 0.022 | 0.017 | 0.02 |
| CC(C)(OCc1ccccn1)c1csc(NC(=O)c2cccn2Cc2ccncc2)n1 [Compound A257] | 24.8 | > 25 | 4.01 | 1.88 | > 25 | 3.63 | – | – | – | – |
| COc1cnccc1Cn1cccc1C(=O)Nc1nc(C(C)(C)OC(C)C)cs1 [Compound A211, N-(4-(2-isopropoxypropan-2-yl)thiazol-2-yl)-1-((3-methoxypyridin-4-yl)methyl)-1H-pyrrole-2-carboxamide] | > 25 | > 25 | > 25 | 10 | > 25 | 8.31 | – | – | – | – |
| O=C(Nc1nc(C2CN(c3ccccc3)C2)cs1)c1cccn1Cc1ccncc1 [Compound A316] | – | > 25 | – | – | > 25 | – | 3.17 | 0.313 | 0.117 | 0.762 |
| O=C(Nc1nc2nccnc2s1)c1cccn1Cc1ccncc1 [Compound A115] | > 25 | > 25 | > 25 | > 25 | > 25 | > 25 | – | – | – | – |
| CCC(C)c1csc(NC(=O)c2cccn2Cc2ccncc2)n1 (stereo not drawn) [Compound A23] | 5.47 | > 25 | 0.447 | 0.29 | > 25 | 0.429 | – | – | – | – |
| CC(C)OC(C)(C)c1csc(NC(=O)c2cccn2Cc2ccncc2C(F)(F)F)n1 [Compound A214, N-(4-(2-isopropoxypropan-2-yl)thiazol-2-yl)-1-((3-(trifluoromethyl)pyridin-4-yl)methyl)-1H-pyrrole-2-carboxamide] | > 25 | > 25 | 6.7 | 4.55 | > 25 | 6.45 | – | – | – | – |
| O=C(Nc1nc([C@H]2C[C@H](Oc3ccccc3)C2)cs1)c1cccn1Cc1ccncc1 [Compound A329] | – | 22.8 | – | – | > 25 | – | 3.16 | 0.342 | 0.202 | 0.739 |
